37 molecules from US9428478B2, “Piperazine derivatives, compositions, and uses related thereto” (Emory University, priority 2011, dated 2016) can be followed below.

Values after ≈ are worked out from the molar mass of the structure shown.

In data set [1] the target is T1, Nox2 (Homo sapiens (Human), UniProt P04839). In words: Nox2 activity assay for primary screening (cell free, human neutrophil plasma membranes, LO12 luminescence). In kind it is biochemical. The method, then: Nox2 activity assay for primary screening: Plasma membranes were prepared from human neutrophils, which express large amounts of Nox2, stored at −80 C until use. See Curnutte et al., J. Biol. Chem. 1987, 262, 6450-6452, hereby incorporated by reference. Membranes are mixed with recombinant, purified cytosolic regulatory proteins (p67Np47N chimera, and a constitutively active mutant of Rac, Rac1(Q61)) and FAD, along with varying concentrations of compound, and LO12, which emits light when it reacts with ROS. The reaction is initiated by addition of NADPH and SDS (an artificial activator of Nox2).
Target sequence in this assay (P04839 2-570): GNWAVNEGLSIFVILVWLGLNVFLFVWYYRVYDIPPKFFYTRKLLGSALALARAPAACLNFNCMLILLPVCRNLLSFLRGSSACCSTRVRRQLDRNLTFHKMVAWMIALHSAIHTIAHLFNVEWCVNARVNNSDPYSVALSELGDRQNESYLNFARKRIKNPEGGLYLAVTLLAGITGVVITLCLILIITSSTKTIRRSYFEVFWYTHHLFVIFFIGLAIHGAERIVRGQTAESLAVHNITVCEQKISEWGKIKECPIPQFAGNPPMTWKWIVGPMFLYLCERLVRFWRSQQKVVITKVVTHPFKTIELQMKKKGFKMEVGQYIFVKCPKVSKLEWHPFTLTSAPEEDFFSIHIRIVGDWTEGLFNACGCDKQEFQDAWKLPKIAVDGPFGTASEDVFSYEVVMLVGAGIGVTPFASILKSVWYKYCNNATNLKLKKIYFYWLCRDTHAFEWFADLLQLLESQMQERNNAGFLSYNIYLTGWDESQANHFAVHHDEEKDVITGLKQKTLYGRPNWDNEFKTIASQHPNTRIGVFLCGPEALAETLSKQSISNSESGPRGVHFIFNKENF

Data set [2] concerns the target xanthine oxidase (Homo sapiens (Human), UniProt P47989). In words: Assay control: xanthine oxidase (XO) replaces Nox2 as the source of ROS, LO12 luminescence. In kind it is biochemical. As to conditions: Table 2, xanthine oxidase control. The procedure: Assay controls. To rule out interference with either Nox2 or Nox4 luminescence assays, two approaches are used. In one, xanthine oxidase replaces the Nox2 enzymatic system as the source of ROS in the Nox2/LO12 assay. Xanthine is added to initiate the reaction and LO12 luminescence is recorded. In the other, exogenous H2O2 is supplied in place of the Nox4 expressing H2O2-generating cells and luminescence is recorded.

The target in data set [3] is T1, Nox2. In words: Nox2 assay in human neutrophils (PMN), LO12 luminescence. It counts as cell-based. As to conditions: Table 3, human neutrophils; read-out: Nox2 (PMN). The procedure:
Nox2 assay in human neutrophils: Human neutrophils were obtained from healthy volunteers (REF). LO12 luminescence was quantified as above. Nox4 assay using stably transfected HEK cell: HEK cells stably transfected with human Nox4 were incubated with varying concentrations of compound along with LO12.
Target sequence in this assay (P04839 whole entry, looked up): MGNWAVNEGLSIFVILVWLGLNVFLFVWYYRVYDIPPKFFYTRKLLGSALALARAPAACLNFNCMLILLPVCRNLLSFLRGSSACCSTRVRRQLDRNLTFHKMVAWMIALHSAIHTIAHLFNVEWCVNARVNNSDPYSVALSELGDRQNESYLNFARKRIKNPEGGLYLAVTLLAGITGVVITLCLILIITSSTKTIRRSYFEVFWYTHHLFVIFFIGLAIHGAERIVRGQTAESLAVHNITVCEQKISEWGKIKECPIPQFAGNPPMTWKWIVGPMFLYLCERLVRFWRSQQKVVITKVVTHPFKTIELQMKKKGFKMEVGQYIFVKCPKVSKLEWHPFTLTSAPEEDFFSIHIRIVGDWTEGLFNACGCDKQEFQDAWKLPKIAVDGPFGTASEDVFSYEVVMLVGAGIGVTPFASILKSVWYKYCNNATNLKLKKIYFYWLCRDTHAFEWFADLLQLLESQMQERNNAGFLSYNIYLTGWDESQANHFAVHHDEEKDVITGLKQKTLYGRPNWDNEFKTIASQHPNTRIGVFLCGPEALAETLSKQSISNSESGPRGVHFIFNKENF
Target sequence in this assay (P13498 whole entry partner, looked up): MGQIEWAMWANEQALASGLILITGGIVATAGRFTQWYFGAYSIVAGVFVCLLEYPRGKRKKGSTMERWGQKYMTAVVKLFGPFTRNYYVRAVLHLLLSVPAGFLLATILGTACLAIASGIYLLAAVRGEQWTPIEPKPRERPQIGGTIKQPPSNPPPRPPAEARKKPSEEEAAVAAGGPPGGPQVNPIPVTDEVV

The target in data set [4] is Nox1 (Homo sapiens (Human), UniProt Q9Y5S8). Put plainly: Nox1 inhibition. The note with it: Table 3. It counts as biochemical.
Data set [5] in a line: Solubility. It counts as physicochemical.
For data set [6], the target named is Nox5 (Homo sapiens (Human), UniProt Q96PH1). Put plainly: Nox5 inhibition. It counts as biochemical. The note with it: Table 3.
Data set [7] in a line: Stability in liver S9-fractions, mouse. It counts as in vitro ADME. The note with it: read-out: Stability in liver S9-fractions (t ½) Mouse (converted).
Data set [8] can be described thus: Stability in liver S9-fractions, dog. It counts as in vitro ADME. As to conditions: read-out: Stability in liver S9-fractions (t ½) Dog (converted).
A short description of data set [9]: Stability in liver S9-fractions, human. In kind it is in vitro ADME. As to conditions: read-out: Stability in liver S9-fractions (t ½) Human (converted).
Setting [10] is: Table 3, read-out: Nox2 (Cell Free).

Sequence of xanthine oxidase (P47989 whole entry, species assumed): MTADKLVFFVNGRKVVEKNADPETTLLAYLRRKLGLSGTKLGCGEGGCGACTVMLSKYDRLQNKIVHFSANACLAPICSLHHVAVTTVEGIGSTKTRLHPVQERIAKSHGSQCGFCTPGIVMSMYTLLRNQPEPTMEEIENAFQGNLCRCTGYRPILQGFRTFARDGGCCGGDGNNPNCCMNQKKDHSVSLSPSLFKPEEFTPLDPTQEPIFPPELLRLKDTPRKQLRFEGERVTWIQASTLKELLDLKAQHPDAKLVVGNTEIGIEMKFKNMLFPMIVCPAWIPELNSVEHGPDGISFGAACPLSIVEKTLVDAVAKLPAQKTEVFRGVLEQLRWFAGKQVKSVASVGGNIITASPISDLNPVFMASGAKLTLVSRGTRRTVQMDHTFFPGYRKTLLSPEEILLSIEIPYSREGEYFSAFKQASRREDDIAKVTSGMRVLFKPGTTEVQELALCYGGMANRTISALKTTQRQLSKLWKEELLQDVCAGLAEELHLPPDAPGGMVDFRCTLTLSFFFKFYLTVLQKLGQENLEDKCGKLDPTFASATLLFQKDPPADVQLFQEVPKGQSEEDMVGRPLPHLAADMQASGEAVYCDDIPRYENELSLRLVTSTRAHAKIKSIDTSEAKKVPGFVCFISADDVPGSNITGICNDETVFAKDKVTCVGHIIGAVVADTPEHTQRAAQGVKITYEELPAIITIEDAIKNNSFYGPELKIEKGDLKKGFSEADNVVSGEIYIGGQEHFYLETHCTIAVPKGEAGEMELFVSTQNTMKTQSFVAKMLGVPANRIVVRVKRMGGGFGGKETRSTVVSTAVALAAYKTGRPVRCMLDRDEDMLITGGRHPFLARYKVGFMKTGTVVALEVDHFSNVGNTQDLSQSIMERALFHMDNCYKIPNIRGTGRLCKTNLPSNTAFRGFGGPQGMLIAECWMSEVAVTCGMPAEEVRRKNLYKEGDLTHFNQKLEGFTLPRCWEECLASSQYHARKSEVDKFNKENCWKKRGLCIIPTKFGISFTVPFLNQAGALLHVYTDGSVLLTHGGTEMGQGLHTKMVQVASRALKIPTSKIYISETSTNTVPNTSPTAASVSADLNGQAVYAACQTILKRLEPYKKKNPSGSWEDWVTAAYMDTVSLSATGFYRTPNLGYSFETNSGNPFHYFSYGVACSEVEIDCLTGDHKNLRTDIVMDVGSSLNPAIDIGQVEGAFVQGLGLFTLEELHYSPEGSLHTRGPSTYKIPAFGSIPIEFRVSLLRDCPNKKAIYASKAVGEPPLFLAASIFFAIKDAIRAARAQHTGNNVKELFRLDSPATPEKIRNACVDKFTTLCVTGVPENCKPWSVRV
Sequence of Nox1 (Q9Y5S8 whole entry, species assumed): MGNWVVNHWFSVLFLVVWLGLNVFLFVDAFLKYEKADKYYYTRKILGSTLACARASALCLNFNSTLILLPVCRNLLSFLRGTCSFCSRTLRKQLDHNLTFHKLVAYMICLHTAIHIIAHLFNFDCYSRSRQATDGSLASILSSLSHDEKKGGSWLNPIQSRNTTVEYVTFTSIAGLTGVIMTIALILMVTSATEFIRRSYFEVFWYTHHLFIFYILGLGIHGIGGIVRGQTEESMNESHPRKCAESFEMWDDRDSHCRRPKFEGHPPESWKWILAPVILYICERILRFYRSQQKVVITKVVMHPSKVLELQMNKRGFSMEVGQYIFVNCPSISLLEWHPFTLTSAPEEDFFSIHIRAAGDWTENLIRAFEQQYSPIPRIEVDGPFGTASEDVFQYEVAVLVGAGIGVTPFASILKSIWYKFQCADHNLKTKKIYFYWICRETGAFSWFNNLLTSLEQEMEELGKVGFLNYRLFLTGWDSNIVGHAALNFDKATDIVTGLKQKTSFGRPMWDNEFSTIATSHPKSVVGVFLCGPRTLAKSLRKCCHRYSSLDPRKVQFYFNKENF
Sequence of Nox1 (P13498 2-195 partner, species assumed): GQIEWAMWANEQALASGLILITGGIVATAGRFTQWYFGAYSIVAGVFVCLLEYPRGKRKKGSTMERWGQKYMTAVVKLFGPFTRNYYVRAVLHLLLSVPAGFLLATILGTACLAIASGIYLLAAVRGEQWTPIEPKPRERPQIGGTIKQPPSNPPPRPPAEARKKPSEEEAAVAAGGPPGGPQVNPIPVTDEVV
Sequence of Nox5 (Q96PH1 whole entry, species assumed): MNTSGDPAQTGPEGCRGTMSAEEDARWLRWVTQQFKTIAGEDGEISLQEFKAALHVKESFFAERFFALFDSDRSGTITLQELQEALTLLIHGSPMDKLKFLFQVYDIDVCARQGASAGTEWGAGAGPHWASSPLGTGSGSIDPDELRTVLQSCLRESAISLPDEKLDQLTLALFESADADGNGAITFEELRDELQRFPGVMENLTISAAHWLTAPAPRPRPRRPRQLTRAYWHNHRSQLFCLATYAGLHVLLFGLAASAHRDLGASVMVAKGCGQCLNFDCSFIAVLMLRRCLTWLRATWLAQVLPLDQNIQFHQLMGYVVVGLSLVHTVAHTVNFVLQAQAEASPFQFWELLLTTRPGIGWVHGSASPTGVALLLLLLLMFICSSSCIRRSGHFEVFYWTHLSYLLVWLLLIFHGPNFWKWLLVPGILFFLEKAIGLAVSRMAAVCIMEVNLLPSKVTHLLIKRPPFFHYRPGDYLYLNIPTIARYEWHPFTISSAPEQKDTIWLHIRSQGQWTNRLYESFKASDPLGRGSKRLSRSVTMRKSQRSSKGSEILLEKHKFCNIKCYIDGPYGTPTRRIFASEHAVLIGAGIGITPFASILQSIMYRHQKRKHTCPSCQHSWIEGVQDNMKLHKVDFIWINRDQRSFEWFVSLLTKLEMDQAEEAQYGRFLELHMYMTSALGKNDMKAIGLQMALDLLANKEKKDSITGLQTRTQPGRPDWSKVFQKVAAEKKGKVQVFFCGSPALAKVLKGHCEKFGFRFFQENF

Take `COc1ccc(N2CCN(C(=O)c3cc4cc(C(=O)O)ccc4[nH]3)CC2)cc1` [TG6-236]: the IC50 in [1] (Table 2, read-out: IC50 Nox2) is 500 nM; in [2], more than 20000 nM.
The solubility is the concentration that dissolves in the medium under given conditions. A high value points to a readily soluble substance. Turning to `CCN(CC)CCNCc1c(C(=O)N2CCN(c3ccc(OC)cc3)CC2)[nH]c2ccc(F)cc12` [TG6-298, (3-(((2-(diethylamino)ethyl)amino)methyl)-5-fluoro-1H-indol-2-yl)(4-(4-methoxyphenyl)piperazin-1-yl)methanone], the IC50 in data set [1] (setting [10]) was found to be 300 nM; in [3], 200 nM; in data set [4], 900 nM. Also, the solubility in data set [5] came to 150 µM (≈ 72.2 µg/mL).
`CCN1CCN(Cc2c(C(=O)N3CCN(c4ccc(OC)cc4)CC3)[nH]c3ccc(F)cc23)CC1` [TG7-33, (3-((4-ethylpiperazin-1-yl)methyl)-5-fluoro-1H-indol-2-yl)(4-(4-methoxyphenyl)piperazin-1-yl)methanone]: the IC50 is 800 nM in data set [1] (setting [10]), 700 nM in [3], 400 nM in data set [4] and 800 nM in data set [6]. For the same molecule, in data set [5], the concentration in solution (solubility) was 250 µM (≈ 120 µg/mL).
As to `COc1ccc(N2CCN(C(=O)c3cc4cc(C(C)=O)ccc4[nH]3)CC2)cc1F` [TG6-252], in data set [1] (Table 2, read-out: IC50 Nox2), the IC50 was 3000 nM.
In the case of `COC(=O)c1ccc2[nH]c(C(=O)N3CCN(c4ccc(OC)cc4)CC3)cc2c1` [TG6-222], the IC50 is 300 nM in data set [1] (Table 2, read-out: IC50 Nox2) and more than 20000 nM in data set [2].
On the same counts, the results for `COc1ccc(N2CCN(C(=O)c3nc4cc(OC)ccc4[nH]3)CC2)cc1` [TG6-228] are 1000 nM and more than 20000 nM.
Turning to `COc1ccc(N2CCN(C(=O)c3cc4ccccc4[nH]3)CC2)cc1` [TG6-225], the IC50 is 500 nM in data set [1] (Table 2, read-out: IC50 Nox2); 400 nM in data set [1] (setting [10]); 200 nM in [3]; more than 20000 nM in data set [2]; 500 nM in data set [4]. Also, the solubility in data set [5] is less than 25 µM. Further, the half-life in data set [7] was 5 h; in [8], 2.5 h; in data set [9] it was 4.2 h.
Turning to `COc1ccc(N2CCN(C(=O)c3cc4cc(OC)ccc4[nH]3)CC2)cc1` [TG6-179-2], the IC50 in [1] (Table 2, read-out: IC50 Nox2) was found to be 500 nM.
Broadly, the inhibition is the percentage by which the read-out fell short of the control. Read a high inhibition as a response far below the control. Molecule `COc1ccc(N2CCN(C(=O)c3[nH]c4ccc(OC)cc4c3NC(C)=O)CC2)cc1` [TG6-208] had an inhibition at 2 µM in data set [1] of 60%.
Take `COc1ccc(N2CCN(C(=O)c3cc4cc(OC)c(OC)cc4[nH]3)CC2)cc1` [TG6-181]: the IC50 in data set [1] (Table 2, read-out: IC50 Nox2) was 800 nM; in [2], more than 20000 nM.
For `CCN(CC)Cc1c(C(=O)N2CCN(c3ccc(OC)cc3)CC2)[nH]c2ccc(F)cc12.Cl` [TG7-34, (3-((diethylamino)methyl)-5-fluoro-1H-indol-2-yl)(4-(4-methoxyphenyl)piperazin-1-yl)methanone], the IC50 turned out to be 700 nM in data set [1] (setting [10]), 500 nM in [3], 600 nM in [4] and 600 nM in data set [6]. The same molecule returned a solubility in [5] of 270 µM.
As for `COc1ccc(N2CCN(C(=O)[C@H]3Cc4ccccc4N3)CC2)cc1` [TG6-214], in [1], the inhibition at 2.5 µM is 40%.
Turning to `COc1ccc(N2CCN(C(=O)c3[nH]c4ccc(F)cc4c3C)CC2)cc1` [TG6-200], the IC50 in [1] (Table 2, read-out: IC50 Nox2) worked out at 700 nM.
Take `O=C(c1nc2cc(F)ccc2[nH]1)N1CCN(c2ccc(OC(F)(F)F)cc2)CC1` [TG6-206]: the “IC50 Nox2” value in data set [1] (Table 2) is on record as “Not active”.
`COc1ccc(N2CCN(C(=O)c3cnc4ccc(F)cc4c3O)CC2)cc1` [TG6-191]: the IC50 in [1] (Table 2, read-out: IC50 Nox2) was 1500 nM.
The same measure, in the same setting: in the case of `COc1ccc(N2CCN(C(=O)c3[nH]c4ccc(C(C)=O)cc4c3C)CC2)cc1` [TG6-190] it was 1000 nM.
For `O=C(c1cc2cc([N+](=O)[O-])ccc2[nH]1)N1CCN(c2ccc(OC(F)(F)F)cc2)CC1` [TG6-209], testing at 2 µM in [1] gave an inhibition of 25%.
As for `COc1ccc(N2CCN(C(=O)c3[nH]c4ccc(F)cc4c3CNC3CCN(C)CC3)CC2)cc1` [TG7-32, (5-fluoro-3-(((1-methylpiperidin-4-yl)amino)methyl)-1H-indol-2-yl)(4-(4-methoxyphenyl)piperazin-1-yl)methanone], the IC50 in data set [1] (setting [10]) came to 700 nM; in data set [3], 200 nM; in data set [4] it was 500 nM; in data set [6], 600 nM. For the same molecule, in data set [5], the concentration in solution (solubility) came to 250 µM (≈ 120 µg/mL).
As for `COc1ccc(N2CCN(C(=O)c3nc4cc(F)ccc4[nH]3)CC2)cc1` [TG6-179-3, (5-fluoro-1H-benzo[d]imidazol-2-yl)(4-(4-methoxyphenyl)piperazin-1-yl)methanone], the IC50 in data set [1] (Table 2, read-out: IC50 Nox2) was 700 nM; in [1] (setting [10]), 1000 nM; in [3], 400 nM; in data set [2], more than 20000 nM; in data set [4], 600 nM. The molecule also returned a solubility in [5] of less than 25 µM. The half-life in data set [7] is 5 h; in data set [8], 4 h; in data set [9], 1 h.
With `COc1ccc(N2CCN(C(=O)c3cc4cc(F)ccc4[nH]3)CC2)cc1` [TG6-179-1], in data set [1] (Table 2, read-out: IC50 Nox2), the IC50 came out at 5000 nM.
In the case of `COc1ccc(N2CCN(C(=O)c3cc4cc(C(N)=O)ccc4[nH]3)CC2)cc1F` [TG6-254-1], in data set [1] (Table 2, read-out: IC50 Nox2), the IC50 was 2000 nM.
Consider `CCOc1ccc(N2CCN(C(=O)c3nc4cc(F)ccc4[nH]3)CC2)cc1` [TG6-242], for which the IC50 in data set [1] (Table 2, read-out: IC50 Nox2) was found to be 800 nM.
As for `CC(C)Oc1ccc(N2CCN(C(=O)c3nc4cc(C(N)=O)ccc4[nH]3)CC2)cc1` [TG6-251-1], the IC50 is 1000 nM in data set [1] (Table 2, read-out: IC50 Nox2) and not below 20000 nM in data set [2].
Consider `COc1ccc(N2CCN(C(=O)c3cnc4c(F)cccc4c3O)CC2)cc1` [TG6-192], for which the “IC50 Nox2” value in data set [1] (Table 2) is “Not active”.
For `COc1ccc(N2CCN(C(=O)c3[nH]c4ccc(F)cc4c3CN3CCOCC3)CC2)cc1.Cl` [TG7-31, (5-fluoro-3-(morpholinomethyl)-1H-indol-2-yl)(4-(4-methoxyphenyl)piperazin-1-yl)methanone], the IC50 amounted to 800 nM in data set [1] (setting [10]), 200 nM in [3], 600 nM in data set [4] and 1500 nM in [6]. Further, the solubility in data set [5] was 276 µM.
For `COc1ccc(N2CCN(C(=O)c3cnc4cc(C(C)=O)ccc4c3O)CC2)cc1` [TG6-239], the IC50 in data set [1] (Table 2, read-out: IC50 Nox2) is 1000 nM; in data set [2], not below 20000 nM.
`CC(=O)c1ccc2[nH]c(C(=O)N3CCN(c4ccc(OC(C)C)cc4)CC3)cc2c1` [TG6-251-2]: the IC50 in [1] (Table 2, read-out: IC50 Nox2) came out at 1000 nM.
Regarding `COc1ccc(N2CCN(C(=O)c3cc4cc(Br)ccc4[nH]3)CC2)cc1` [TG6-203], in [1], at 0.3 µM the inhibition was 30%.
For `COc1ccc(N2CCN(C(=O)c3cc4cc(C(N)=O)ccc4[nH]3)CC2)cc1` [TG6-227], the IC50 in [1] (Table 2, read-out: IC50 Nox2) was 700 nM; in [1] (setting [10]), 600 nM; in [3], 100 nM; in [2], more than 20000 nM; in [4], 300 nM. Besides, the concentration in solution in [5] (solubility) was 190 µM (≈ 71.9 µg/mL). The half-life in data set [7] was 6 h; in data set [8], 4.5 h; in [9] it was 2 h.
For the molecule `COc1ccc(N2CCN(C(=O)c3cc4cc(O)ccc4[nH]3)CC2)cc1` [TG6-199], the IC50 in data set [1] (Table 2, read-out: IC50 Nox2) was 500 nM; in data set [2], less than 100 nM.
Taken in the same sequence, the figures for `COC(=O)C1CN(c2ccc(OC)cc2)CCN1C(=O)c1nc2cc(F)ccc2[nH]1` (centres unmarked) [TG6-235] were 1000 nM and more than 20000 nM.
In data set [1], `COc1ccc(N2CCN(C(=O)c3cc4cc(S(C)(=O)=O)ccc4[nH]3)CC2)cc1` [TG6-218] returned an inhibition at 6 µM of 40%.
Consider `CCc1ccc2[nH]c(C(=O)N3CCN(c4ccc(OC)cc4)CC3)cc2c1` [TG6-202], for which the “IC50 Nox2” value in data set [1] (Table 2) is listed as “Not active”. For the same molecule, the IC50 in data set [2] is more than 20000 nM.
In the case of `CCOc1ccc(N2CCN(C(=O)c3cc4cc(C(C)=O)ccc4[nH]3)CC2)cc1` [TG6-238], the IC50 was 800 nM in data set [1] (Table 2, read-out: IC50 Nox2) and not below 20000 nM in [2].
Taken in the same sequence, the figures for `CNC(=O)c1ccc2[nH]c(C(=O)N3CCN(c4ccc(OC)cc4)CC3)cc2c1` [TG6-223] were 500 nM and more than 20000 nM.
With `CNC(=O)c1ccc2[nH]c(C(=O)N3CCN(c4ccc(OC)c(F)c4)CC3)cc2c1` [TG6-254-2], the IC50 in data set [1] (Table 2, read-out: IC50 Nox2) came to 10000 nM.
Regarding `O=C(c1cc2cc(O)ccc2[nH]1)N1CCN(c2ccc(OC(F)(F)F)cc2)CC1` [TG6-205-2], the IC50 in [1] (Table 2, read-out: IC50 Nox2) is 1500 nM; in data set [2] it was 200 nM.
